IC50 data for one compound are collected here from patent US12258336B2, “Preparation of seimicarbazide-sensitive amine oxidase inhibitor and use thereof” (SHANGHAI ENNOVABIO PHARMACEUTICALS CO., LTD., priority 2018, dated 2025).

Common to all, as to type: biochemical
The target of one assay is T1, Recombinant human MAO-B (Homo sapiens, UniProt P27338).
T1 construct: purchased Sigma M7441
T1 sequence (P27338 1-520): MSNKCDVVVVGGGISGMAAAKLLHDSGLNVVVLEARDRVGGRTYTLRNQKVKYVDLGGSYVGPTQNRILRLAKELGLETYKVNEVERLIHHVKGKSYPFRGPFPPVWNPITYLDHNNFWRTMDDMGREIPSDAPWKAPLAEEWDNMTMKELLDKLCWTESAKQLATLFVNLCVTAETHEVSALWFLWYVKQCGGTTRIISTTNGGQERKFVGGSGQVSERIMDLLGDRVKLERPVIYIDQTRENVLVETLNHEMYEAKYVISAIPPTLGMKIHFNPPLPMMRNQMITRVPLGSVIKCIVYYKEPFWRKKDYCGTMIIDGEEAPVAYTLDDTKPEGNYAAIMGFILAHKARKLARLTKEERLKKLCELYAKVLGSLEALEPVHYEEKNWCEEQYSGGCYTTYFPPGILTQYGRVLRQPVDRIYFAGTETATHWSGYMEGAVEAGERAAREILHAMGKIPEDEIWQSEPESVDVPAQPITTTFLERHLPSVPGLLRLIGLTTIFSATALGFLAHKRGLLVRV
Put plainly: Inhibitory activity on MAO-B. The procedure:
(§1) Recombinant human MAO-A and MAO-B protein was purchased from Sigma (M7316, M7441). Other reagents are the same as Biological Test Example 1. The final concentration of test compound in 10 μL reaction system was 100 μM to 5 nM when MAO-A and MAO-B were detected. The final concentrations of MAO-A and MAO-B protein in 10 μL reaction system were 70 nM and 300 nM, respectively, while other reaction conditions were the same as those in Biological Test Example 1. Data analysis and IC50 calculation method were the same as those in Biological Test Example 1.

In assay [1] the target is T2, Recombinant human SSAO protein (Homo sapiens, UniProt Q16853).
T2 construct: Eli Lilly (provided, not a catalogue product)
T2 sequence (Q16853 1-763): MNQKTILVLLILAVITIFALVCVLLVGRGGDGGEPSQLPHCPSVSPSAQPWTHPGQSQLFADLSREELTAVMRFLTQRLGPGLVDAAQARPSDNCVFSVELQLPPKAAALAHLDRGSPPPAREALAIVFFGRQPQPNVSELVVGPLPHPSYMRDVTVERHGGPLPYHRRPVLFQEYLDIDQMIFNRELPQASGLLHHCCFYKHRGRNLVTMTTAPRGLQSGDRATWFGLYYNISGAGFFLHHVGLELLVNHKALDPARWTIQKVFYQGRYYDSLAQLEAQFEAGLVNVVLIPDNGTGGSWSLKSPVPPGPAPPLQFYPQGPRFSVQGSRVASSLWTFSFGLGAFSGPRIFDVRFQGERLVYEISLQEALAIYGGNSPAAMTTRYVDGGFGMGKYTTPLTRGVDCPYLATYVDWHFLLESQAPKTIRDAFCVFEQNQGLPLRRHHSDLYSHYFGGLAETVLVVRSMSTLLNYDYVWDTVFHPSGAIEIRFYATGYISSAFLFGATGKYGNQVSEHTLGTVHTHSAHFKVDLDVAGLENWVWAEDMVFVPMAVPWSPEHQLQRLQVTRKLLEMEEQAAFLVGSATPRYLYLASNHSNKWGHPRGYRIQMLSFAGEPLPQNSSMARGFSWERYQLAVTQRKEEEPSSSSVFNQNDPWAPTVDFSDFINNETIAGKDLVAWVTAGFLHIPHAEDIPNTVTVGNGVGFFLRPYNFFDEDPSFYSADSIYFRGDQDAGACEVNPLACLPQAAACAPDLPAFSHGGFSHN
Put plainly: In vitro inhibitory activity on SSAO/VAP-1 (MAO-Glo assay), human. Here is the method:
This assay was used to evaluate the in vitro inhibitory activity of the compounds on SSAO/VAP-1 of different species. Recombinant human SSAO protein, mouse SSAO protein or rat SSAO protein (provided by Eli Lilly) were used. The enzyme activity detection kit, MAO-Glo Assay kit (V1402) was purchased from Promega. Enzyme reaction buffer (50 mM HEPES, 120 mM NaCl, 5 mM KCl, 2 mM CaCl2, 1.4 mM MgCl2, 0.001% Tween-20, pH7.4) was prepared. The test compound was dissolved in DMSO and diluted by 3-fold concentration in gradient. The final concentration of test compound in a 10 μL reaction system was 1 μM to 0.05 nM when SSAO was detected. The content of DMSO in the detection reaction was 1%. After the solution of test compound in DMSO was diluted in the enzyme reaction buffer at a volume ratio of 1:25, 2.5 μL of which was added to each well of detection plate, two replicates for each concentration. 5 μL of SSAO protein diluted in the enzyme reaction buffer was added to each well, the final concentration of which was 10 nM to 80 nM in 10 μL reaction system. The mixture was incubated at room temperature for 10 minutes. 2.5 μL of the reaction substrate diluted in the enzyme reaction buffer was added to each well, the final concentration of which was 10 μM in 10 μL reaction system. After the mixture was reacted at room temperature for 120 minutes, 10 μL of detection reagent was added to each well. The reaction solution was incubated for 20 minutes at room temperature, and the plate was read with Synergy Neo 2 for detection. The value was converted into inhibition rate by the following formula: Inhibition rate=(Signalpositive−Signaltest)/(Signalpositive−Signalnegative)×100%
Signalpositive was positive control without test compound. Signalnegative was negative control without test compound and SSAO enzyme, and Signaltest was detection value of each compound at different concentrations. IC50 value was calculated by using 4 parameter curve fitting.

The next assay has as its target T3, Recombinant human MAO-A (Homo sapiens, UniProt P21397).
T3 construct: purchased Sigma M7316
T3 sequence (P21397 1-527): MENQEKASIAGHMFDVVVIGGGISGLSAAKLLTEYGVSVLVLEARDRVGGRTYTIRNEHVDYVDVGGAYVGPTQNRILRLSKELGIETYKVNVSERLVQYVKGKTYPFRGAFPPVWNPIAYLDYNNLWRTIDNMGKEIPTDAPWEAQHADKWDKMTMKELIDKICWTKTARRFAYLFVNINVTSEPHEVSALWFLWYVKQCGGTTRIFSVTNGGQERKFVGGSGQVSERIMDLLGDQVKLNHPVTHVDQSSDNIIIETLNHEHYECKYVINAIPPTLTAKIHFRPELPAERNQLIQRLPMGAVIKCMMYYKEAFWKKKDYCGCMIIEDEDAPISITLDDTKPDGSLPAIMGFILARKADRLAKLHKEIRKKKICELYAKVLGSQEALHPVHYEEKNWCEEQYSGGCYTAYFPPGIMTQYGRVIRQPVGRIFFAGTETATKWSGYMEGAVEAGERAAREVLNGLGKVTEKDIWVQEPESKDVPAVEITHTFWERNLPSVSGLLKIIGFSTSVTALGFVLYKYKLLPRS
Put plainly: Inhibitory activity on MAO-A. The procedure:
as §1

A word on the IC50: it is the concentration at which inhibition is half-maximal. As for `NC/C(=C\F)COc1cnc(N2CC3(COC3)C2)nc1` [Example 11], the IC50 was over 20 µM on Recombinant human MAO-B, over 0.05 µM in assay [1] and 2 to 100 µM at Recombinant human MAO-A.
